Columns and labels:
[1] = system: collagenase from Clostridium Histolyticum; test: Collagenase inhibiting activity (method of Appel, substrate N-carbobenzoxy-pro-gly-gly-L-pro-L-alanine); format: biochemical; settings: collagenase type II (Sigma), collagen synthetic peptide substrate
Description: The proteolytic activity of collagenase from Clostridium Histolyticum (Sigma, type II) was dosed according to the method by Appel (Method in enzymatic analysis, H.U. Bergmayer Vol. 2, pp. 1058-1063; 1978) using the collagen synthetic peptide N-carbobenzoxy-pro-gly-gly-L-pro-L-alanine as the substrate.

[2] = system: arteriosclerotic lesions induced by the diet in the rabbit; test: Antiarteriosclerotic activity (procedure of C.T. Cahn, diet-induced lesions); format: in vivo; settings: compound given together with the diet, end of a 12 week treatment
Description: The antiarteriosclerotic activity was tested according to the procedure described by C.T. Cahn, Circul. Research, 43, 115, 1975. The procedure consists in verifying any protecting actions of a drug on arteriosclerotic lesions induced by the diet in the rabbit.

Structure (SMILES) | inhibiting activity [1] | IC50 ([1]; read-out: IC₅₀) [nM] | cholesterol levels [2] | collagen levels in the connective tissue of the aorta intima [2] | elastin levels in the connective tissue of the aorta intima [2] | triglyceride levels [2]
CC(SC(=O)c1cccs1)C(=O)NC1CCSC1=O (stereo not drawn) [MR-889, 2-(2-Thenoylthio)-N-(2',3',4',5'-tetrahydro-2'-keto-thiophen-3'-yl)propionyl amide, reference compound] | almost no inhibiting activity |  |  |  |  | 
CC(C)C(SC(=O)c1cccs1)C(=O)NC1CCSC1=O (stereo not drawn) [MR-2047, N-[(2-thenoylmercapto-3-methyl)-butanoyl]-homocysteine thiolactone] |  | ~2000 | significant reduction | significant reduction | significant reduction | significant reduction

Reference: patent EP0557303B1, “N- (2-THENOYLMERCAPTO-3-METHYL)-BUTANOYL]-HOMOCYSTEINE THIOLACTONE, A PROCESS FOR THE PREPARATION THEREOF AND PHARMACEUTICAL COMPOSITIONS CONTAINING IT” (priority 1990, dated 1992)
